Some test systems named below: COLO 205 colon; DLD-1 colon; EKVX NSCLC; HCC-2998 colon; M14 melanoma; OVCAR-3 ovarian; SR leukemia; SW-620 colon; M19-MEL melanoma; PC-3 prostate.
What all share (assay): NCI anticancer screen, dose series, 48 h

Each structure is given as a SMILES string.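 Test compounds were applied to cells in 96-well plates for 48 hours at 5 doses. GI50 is the concentration that inhibits growth by half. TGI is the concentration that stops growth completely.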

As to `CC(N)Cc1ccc(Cl)cc1` (stereo unspecified), the TGI with COLO 205 colon, in the assay on DLD-1 colon, in the assay on EKVX NSCLC, in the assay on HCC-2998 colon, in the assay on M14 melanoma and in the assay with OVCAR-3 ovarian was > 100 µM each time. Also, the TGI in the assay with SR leukemia and in the assay on SW-620 colon was > 100 µM throughout.
Take `O=C(Nc1cc(Cl)ccc1Cl)c1cc2cccc(Br)c2oc1=O`: the TGI with COLO 205 colon, with DLD-1 colon, in the assay with EKVX NSCLC, in the assay with M14 melanoma, in the assay on M19-MEL melanoma and in the assay with OVCAR-3 ovarian was > 100 µM in each case. Also, the TGI with SW-620 colon was > 100 µM.
As for `COC1=CC(=O)C(Br)=CC1=O`, the TGI in the assay with COLO 205 colon is 31 µM; in the assay with DLD-1 colon it was > 100 µM; with EKVX NSCLC, 44.8 µM; in the assay with HCC-2998 colon, > 100 µM; in the assay with M14 melanoma, 33.5 µM; in the assay with M19-MEL melanoma, 32 µM. The TGI in the assay on SW-620 colon amounted to 54.9 µM.
For `O=C1NC(=O)C(=Cc2c3ccccc3cc3ccccc23)C(=O)N1`, the TGI in the assay with COLO 205 colon, in the assay on M14 melanoma, with M19-MEL melanoma and in the assay with SW-620 colon was > 100 µM in each case.
For `C#CCN(N=O)C(=O)NCCCCC(NC(=O)OCc1ccccc1)C(=O)OCc1ccccc1` (stereo unspecified), the TGI is 85.2 µM with DLD-1 colon; > 100 µM with EKVX NSCLC; > 100 µM with HCC-2998 colon; 68 µM with M14 melanoma; 63 µM in the assay on M19-MEL melanoma; 53.9 µM in the assay with OVCAR-3 ovarian. Moreover, the TGI in the assay with SW-620 colon is 31.1 µM.
As for `CC/C=C\C[C@H](O)C/C=C1/C(=O)C=C[C@@H]1C/C=C\CCCC(=O)OC(C)C`, the GI50 in the assay with COLO 205 colon is 1790 nM; in the assay on EKVX NSCLC it was 3040 nM; in the assay with HCC-2998 colon it was 1870 nM; in the assay on M14 melanoma, 790 nM; in the assay on OVCAR-3 ovarian, 483 nM; in the assay with PC-3 prostate it was 1580 nM. Moreover, the GI50 in the assay with SR leukemia was 896 nM; in the assay with SW-620 colon, 572 nM. Moreover, the TGI in the assay on COLO 205 colon amounted to 3.87 µM; with EKVX NSCLC, 11.6 µM; in the assay with HCC-2998 colon, 3.38 µM; in the assay on M14 melanoma it was 3.17 µM; with OVCAR-3 ovarian, 1.71 µM; in the assay with PC-3 prostate, 3.49 µM. Further, the TGI in the assay with SR leukemia was 5.01 µM; in the assay with SW-620 colon, 2.32 µM.
Regarding `C=C1C(=O)O[C@H]2[C@H]1CC/C(COC(=O)c1cn(C)c3ccccc13)=C\CC[C@@]1(C)O[C@@H]21`, the GI50 in the assay with COLO 205 colon was 1240 nM; in the assay on EKVX NSCLC it was 962 nM; in the assay on HCC-2998 colon, 1810 nM; in the assay with M14 melanoma, 1410 nM; in the assay with OVCAR-3 ovarian, 384 nM; with PC-3 prostate it was 1470 nM. Also, the results for the GI50 in the assay with SR leukemia and in the assay with SW-620 colon were 342 nM and 301 nM, respectively. In addition, the TGI in the assay on COLO 205 colon was found to be 2.59 µM; in the assay on EKVX NSCLC, 3.42 µM; in the assay on HCC-2998 colon, 3.8 µM; in the assay with M14 melanoma, 3.3 µM; in the assay on OVCAR-3 ovarian, 1.48 µM; with PC-3 prostate, 4.29 µM. Besides, the TGI in the assay on SR leukemia worked out at 1.17 µM; with SW-620 colon, 1.1 µM.
Turning to `COc1cccc2c1C(=O)c1c(O)c3c(c(O)c1C2=O)C[C@@](O)(C(C)=O)C[C@@H]3OC1CC([N+]([O-])(Cc2ccccc2)Cc2ccccc2)C(O)C(C)O1` (stereo partly specified), the TGI in the assay on DLD-1 colon came to 3.22 µM; with EKVX NSCLC, 3.47 µM; in the assay with HCC-2998 colon, 3.07 µM; in the assay with M14 melanoma, 3.07 µM; with M19-MEL melanoma, 2.76 µM; with OVCAR-3 ovarian, 3.28 µM. The compound also had a TGI with SW-620 colon of 2.54 µM.
As for `COc1ccc(OC)c(NC(=O)c2cccc(NC3=C(Cl)C(=O)N(Cc4ccccc4)C3=O)c2)c1`, the GI50 was > 100000 nM in the assay on COLO 205 colon; 2490 nM in the assay with EKVX NSCLC; 70400 nM in the assay with HCC-2998 colon; > 75000 nM in the assay on M14 melanoma; > 100000 nM in the assay on OVCAR-3 ovarian; 38200 nM with PC-3 prostate. Further, the GI50 in the assay with SR leukemia is 7800 nM; with SW-620 colon, > 100000 nM. Besides, the TGI with COLO 205 colon was > 100 µM; with EKVX NSCLC, 4.94 µM; in the assay on HCC-2998 colon it was > 100 µM; with M14 melanoma it was > 100 µM; in the assay with OVCAR-3 ovarian, > 100 µM; in the assay on PC-3 prostate it was > 100 µM. The TGI in the assay with SR leukemia was > 87.6 µM; in the assay with SW-620 colon, > 100 µM.
Take `CCCCC[C@H]1CC=C2C(=O)C=C[C@@H]2CC=CCCCC(=O)O[C@@H](CCCCC)CC=C2C(=O)C=C[C@@H]2CC=CCCCC(=O)O[C@@H](CCCCC)CC=C2C(=O)C=C[C@@H]2CC=CCCCC(=O)O1`: the GI50 with COLO 205 colon was 169 nM; in the assay on EKVX NSCLC, 414 nM; in the assay with HCC-2998 colon it was 264 nM; in the assay on M14 melanoma, 279 nM; in the assay on OVCAR-3 ovarian, 192 nM; in the assay with PC-3 prostate, 342 nM. Moreover, the results for the GI50 with SR leukemia and in the assay with SW-620 colon were 229 nM and 373 nM, respectively. The TGI in the assay with COLO 205 colon amounted to 0.368 µM; in the assay with EKVX NSCLC it was 6.31 µM; in the assay on HCC-2998 colon, 0.888 µM; in the assay with M14 melanoma, 1.79 µM; with OVCAR-3 ovarian, 0.532 µM; with PC-3 prostate it was 1.5 µM. For the same compound, the TGI in the assay on SR leukemia came to 1.34 µM; with SW-620 colon it was 1.51 µM.
Take `CCC#CC[C@H](O)C/C=C1/C(=O)C=C[C@@H]1C/C=C\CCCC(=O)OC`: the GI50 is 1140 nM in the assay on COLO 205 colon; 1760 nM in the assay with EKVX NSCLC; 1070 nM in the assay with HCC-2998 colon; 1320 nM in the assay with M14 melanoma; 1550 nM in the assay on OVCAR-3 ovarian; 1420 nM in the assay with PC-3 prostate. The GI50 in the assay with SR leukemia is 278 nM; with SW-620 colon it was 1490 nM. In addition, the TGI was 2.86 µM in the assay on COLO 205 colon; 7.73 µM in the assay with EKVX NSCLC; 1.89 µM in the assay with HCC-2998 colon; 5.12 µM in the assay with M14 melanoma; 6.11 µM in the assay with OVCAR-3 ovarian; 5.25 µM in the assay on PC-3 prostate. Moreover, the TGI in the assay on SR leukemia came to 38.2 µM; in the assay with SW-620 colon, 4.83 µM.
For the compound `O=C1/C(=C/c2ccc(F)c(F)c2)CN(C(=O)C(Cl)Cl)C/C1=C\c1ccc(F)c(F)c1`, the GI50 with COLO 205 colon is 175 nM; in the assay on EKVX NSCLC, 188 nM; in the assay on HCC-2998 colon, 93.4 nM; in the assay with M14 melanoma it was 168 nM; in the assay with OVCAR-3 ovarian, 70.9 nM; in the assay with PC-3 prostate, 47.7 nM. The GI50 in the assay with SR leukemia was 12.8 nM; with SW-620 colon it was 21.5 nM. Moreover, the TGI amounted to 0.756 µM in the assay on COLO 205 colon; 0.506 µM in the assay with EKVX NSCLC; 0.235 µM with HCC-2998 colon; 0.515 µM in the assay with M14 melanoma; 0.234 µM in the assay with OVCAR-3 ovarian; 0.273 µM with PC-3 prostate. Moreover, the TGI with SR leukemia is > 100 µM; with SW-620 colon, 0.0554 µM.

The record behind these values is PubChem BioAssay (NCI).
